# Measured values: patent US20210147807A1, “METHODS FOR PURIFYING ENDODERM AND PANCREATIC ENDODERM CELLS DERIVED FROM HUMAN EMBRYONIC STEM CELLS” (HELMHOLTZ ZENTRUM MUNCHEN - DEUTSCHES FORSCHUNGSZENTRUM FUR …, priority 2017, published 2021)
# Key:
# [1] = tested on: PDX1+/NKX6.1+ PP2 cells derived from CD177+, CD275+ and CXCR4+ subpopulations; test: Inhibition of WNT secretion during gut tube patterning, FACS for PDX1+/NKX6.1+ PP2 cells from sorted ADE subpopulations; type: cell-based, human; details: after addition of IWP2 (1.25 μM) at S2, 2D culture
# Method: A) Overview of differentiation protocol towards pancreatic progenitors where inhibition of WNT secretion is performed at […] stage using IWP2 B-D) FACS quantification (B) and immunocytochemistry (C-D) for the percentage of cells expressing
# PDX1+/NKX6.1+ generated from CD177+-, CD275+- and CXCR4+-ADE before (B, C), Scale bars, 50 μm and after (B, D) the treatment with IWP2. Scale bars, 20 μm.
# H9, Mel1-NKX6.1-GFPand iPSCs were cultured on 1:30 diluted Geltrex (Invitogen, U.K, Cat #A1413302) in StemMACS iPS-Brew medium (Miltenyi Biotech, Germany, Cat #130-104-368). At ^˜70-80% confluency, cultures were rinsed with 1×DPBS without Mg2+ and Ca2+ (Invitrogen, Cat #14190) followed by incubation with 0.5 mM EDTA (Applichem, Cat #12604-021) for 2-3 min at 37° C. Single cells were rinsed with iPS-Brew, and spun at 1,300 r.p.m. for 3 mins. The resulting cell pellet was suspended in iPS-Brew medium supplemented with Y-27632 (10 μM; Sigma-Aldrich; MO, Cat #Y0503) and the single cell suspension was seeded at ^˜1.5-2×10 s cells/cm2 on Geltrex-coated surfaces. Cultures were fed every day with iPS-Brew medium and differentiation was initiated 24 h following seeding, resulting in ^˜90% starting confluency. The cells were differentiated towards definitive endoderm using MCDB131 medium supplemented with 0.5% BSA (Sigma, Cat #10775835001), 100 ng/ml Activin A (Peprotech, Cat #120-14-300) and 25 ng/ml WNT3A (Peprotech, Cat #315-20) for the first day. For the next 2 days, the cells were treated with MCDB131 supplemented with 0.5% BSA and 100 ng/ml Activin A. For differentiation towards β cells, Rezania, et. al; 2014 β-cell differentiation protocol was used 14. In nutshell, the cells were differentiated towards primitive gut tube with MCDB131 supplemented with 0.5% BSA, 50 ng/ml of FGF7 (Peprotech, Cat #100-19-100) and 0.25 mM Vit.C (Sigma, Cat #120-14-300) for 2 days. For differentiation towards posterior foregut, the cells were further exposed to MCDB131 medium supplemented with 1xGlutamax (Gibco, Cat #A12860-01), 2% BSA (Cat #10775835001), 0.25 mM Vit. […]
# [2] = tested on: CD177+ and CD275+ ADE subpopulations in the bulk CXCR4+ DE population; test: Modulation of ADE differentiation efficiency by BMP/TGF-β inhibitors during endoderm induction, FACS percentage of CD177+ and CD275+ ADE; type: cell-based, human; details: for percentage of CD275+ DE differentiation: combination of 2.5 μM DMH1 and 1 μM SB431542, endoderm differentiation until D4
# Method: I-K) Pie charts representing the percentage of CD177+ and CD275+ ADE subpopulations generated using no inhibition of pathways (I, condition 1), with high inhibition of BMP signalling using BMP inhibitor DMH1 (J, condition 2) and with moderate BMP inhibition and low TGF-β inhibition (K, condition 3).
# H9, Mel1-NKX6.1-GFPand iPSCs were cultured on 1:30 diluted Geltrex (Invitogen, U.K, Cat #A1413302) in StemMACS iPS-Brew medium (Miltenyi Biotech, Germany, Cat #130-104-368). At ^˜70-80% confluency, cultures were rinsed with 1×DPBS without Mg2+ and Ca2+ (Invitrogen, Cat #14190) followed by incubation with 0.5 mM EDTA (Applichem, Cat #12604-021) for 2-3 min at 37° C. Single cells were rinsed with iPS-Brew, and spun at 1,300 r.p.m. for 3 mins. The resulting cell pellet was suspended in iPS-Brew medium supplemented with Y-27632 (10 μM; Sigma-Aldrich; MO, Cat #Y0503) and the single cell suspension was seeded at ^˜1.5-2×10 s cells/cm2 on Geltrex-coated surfaces. Cultures were fed every day with iPS-Brew medium and differentiation was initiated 24 h following seeding, resulting in ^˜90% starting confluency. The cells were differentiated towards definitive endoderm using MCDB131 medium supplemented with 0.5% BSA (Sigma, Cat #10775835001), 100 ng/ml Activin A (Peprotech, Cat #120-14-300) and 25 ng/ml WNT3A (Peprotech, Cat #315-20) for the first day. For the next 2 days, the cells were treated with MCDB131 supplemented with 0.5% BSA and 100 ng/ml Activin A. For differentiation towards β cells, Rezania, et. al; 2014 β-cell differentiation protocol was used 14. In nutshell, the cells were differentiated towards primitive gut tube with MCDB131 supplemented with 0.5% BSA, 50 ng/ml of FGF7 (Peprotech, Cat #100-19-100) and 0.25 mM Vit.C (Sigma, Cat #120-14-300) for 2 days. For differentiation towards posterior foregut, the cells were further exposed to MCDB131 medium supplemented with 1xGlutamax (Gibco, Cat #A12860-01), 2% BSA (Cat #10775835001), 0.25 mM Vit. C (Sigma, Cat #A4544-25G), 50 ng/ml FGF7, 0.25 μM SANT-1 (Sigma, Cat #54572-5MG), 1 μM retinoic acid (Sigma, Cat #R2625-50MG), 100 nM LDN193189 (Sigma, Cat #04-0074), 1:200 ITS-X (Gibco, Cat #51500-056) and 200 nM TPB (Merk Millipore, Cat #565740-1MG) for 2 days. For the WNT inhibition experiment only, 1.25 μM of IWP2 (Tocris, Cat #3533-10) was added to the cultures. The cells were then further differentiated towards pancreatic endoderm using MCDB131 supplemented with 1xGlutamax, 10 mM final glucose concentration, 2% BSA, 0.25 mM Vit.C, 2 ng/ml FGF7, 0.25 μM SANT-1, 0.1 μM retinoic acid, 200 nM LDN193189, 1:200 ITS-X and 100 nM TPB for 3 days. […]
# [3] = standard differentiation without inhibitor 21%
smiles,measurement,setting,value
Cc1ccc2nc(NC(=O)CSc3nc4c(c(=O)n3-c3ccccc3)SCC4)sc2c1 [IWP2],percentage of PDX1+/NKX6.1+ PP2 cells derived from CD275+ ADE,[1]; without IWP2 approx. 30%,50%
same,percentage of PDX1+/NKX6.1+ PP2 cells derived from CXCR4+ DE,[1]; without IWP2 approx. 45%,75%
same,change in percentage of PDX1+/NKX6.1+ double positive PP2 cells in CD177+-derived PP2s,[1]; without IWP2 approx. 75%,No differences were observed
NC(=O)c1ccc(-c2nc(-c3ccc4c(c3)OCO4)c(-c3ccccn3)[nH]2)cc1 [SB431542],percentage of CD275+ DE differentiation,[2]; [3],54.0%
CC(C)Oc1ccc(-c2cnc3c(-c4ccnc5ccccc45)cnn3c2)cc1 [DMH1],percentage of CD275+ ADE in the bulk CXCR4+ DE population,"[2]; 4 μM DMH1 with 100 ng/ml AA, endoderm differentiation until D4, standard differentiation without inhibitor 21%",14%
same,percentage of CD177+ ADE in the bulk CXCR4+ DE population,"[2]; 4 μM DMH1 with 100 ng/ml AA, endoderm differentiation until D4, standard differentiation without inhibitor 35.5%",80.5%
same,percentage of CD275+ DE differentiation,[2]; [3],54.0%
